Test results: ChEMBL document CHEMBL3507680, “University of Dundee, Gates Library screen for HepG2 cell viability”

Test: Human HepG2 cell viability assay in 384 well format
Format: toxicity, cell-based
Set-up: dose 125 nL, time 70.5 hour; cytotoxicity at 70.5 h: concentration not given beside the values
Details: HepG2 cells, read-out: Inhibition

Row | SMILES | cytotoxicity at 70.5 h
1 | COc1c(C)cnc(CNCC(C)C)c1C | -4.09%
2 | Cc1cccc(N2CC(c3nnc(N)s3)CC2=O)c1 (configuration not stated) | -13.7%
3 | Nc1nnc(C2CC(=O)N(c3ccccc3)C2)s1 (configuration not stated) | -16.4%
4 | Cc1ccccc1N1CC(c2nnc(N)s2)CC1=O (configuration not stated) | 3.37%
5 | Cc1ccc(C2NC(=O)c3cc(C(C)C)sc3N2)cc1 (configuration not stated) | -5.82%
6 | CCn1cc(S(=O)(=O)Nc2nc3c(s2)CCCC3)cn1 | -5.28%
7 | NC(=O)c1c(-c2ccc(Cl)cc2)csc1NC(=O)CCC(=O)O | -4.48%
8 | NC(=O)c1c(-c2ccc(Cl)cc2Cl)csc1NC(=O)CCC(=O)O | 20.5%
9 | CCCn1c(SCC(N)=O)nnc1-c1csc2c1CCCC2 | -9.81%
10 | CCC(CC)CN1CCN(CC(=O)Nc2ccc3nsnc3c2)CC1 | 3.54%
11 | CCC(CC)CN1CCN(CC(=O)Nc2cccc3nsnc23)CC1 | -15.1%
12 | CCn1c(SCC(N)=O)nnc1C(C)NC(=O)c1ccc(Cl)cc1 (configuration not stated) | 17.8%
13 | N#Cc1cc(C#N)c(SCC(=O)NCc2ccc(F)cc2)nc1N | 27.8%
14 | O=C1NC2(CCCCC2)c2nnnn2-c2ccc(Br)cc21 | -5.57%
15 | CCN1CCC2(CC1)NC(=O)c1cc(Br)ccc1-n1nnnc12 | -5.39%
16 | CC(C)N1CCC2(CC1)NC(=O)c1cc(Br)ccc1-n1nnnc12 | -4.14%
17 | Clc1ccc(-n2nnnc2C2(NCc3ccco3)CCCCC2)cc1 | -11.2%
18 | CN1CCN(c2ncc3c(=O)n(Cc4ccco4)ccc3n2)CC1 | -9.22%
19 | CCCC(=O)N1CCC(c2cc3cccnc3c(O)n2)CC1 | -5.85%
20 | Cc1cc(C)nc(C2CCN(c3ccncn3)C2)n1 (configuration not stated) | -2.27%
21 | Cc1c[nH]nc1C1CCN(C(=O)C2CCCC2)C1 (configuration not stated) | -5.07%
22 | c1ccc(N2CCN(Cc3cnc(C4CCCCO4)nc3)CC2)cc1 (configuration not stated) | 4.6%
23 | CC(=O)N[C@@H]1CN(C(=O)CC2CC2)C[C@H]1O | -4.46%
24 | CN(C)c1cc(C2CCCN(C(=O)c3ccc(=O)[nH]n3)C2)ccn1 (configuration not stated) | -1.67%

Row | SMILES | cytotoxicity at 70.5 h
25 | COc1ccccc1C1Cn2ccnc2CN1Cc1c[nH]nc1C (configuration not stated) | -1.22%
26 | Nc1nccnc1C1CN(Cc2ccc(OCC(=O)O)cc2)CCO1 (configuration not stated) | 0.531%
27 | NC(=O)c1ccccc1Oc1cnc(C2CCCN2)cn1 (configuration not stated) | -7.87%
28 | NCC(=O)N1CCC(c2cccc(Oc3ccccc3)n2)CC1 | -7.22%
29 | Nc1nccc(C2CCN(CCO)C2)n1 (configuration not stated) | -21.4%
30 | CN(C)c1nccc(C2CCN(C3CCCCC3O)CC2)n1 (configuration not stated) | 21.1%
31 | COCC(=O)N1CCC(c2cc(-c3ccc(N)nc3)cc(C)n2)CC1 | 19.1%
32 | CNc1nc(C2CCCN(C(=O)CNC(C)=O)C2)nc2c1CN(C)CC2 (configuration not stated) | 11.4%
33 | CCN1CCCC(O)(c2nc(C)c(CCOc3ccccc3F)s2)CC1 (configuration not stated) | -8.35%
34 | Cc1cc(C)n2ncc(CN3C[C@@H](O)[C@H](Oc4ccccc4)C3)c2n1 | -13.5%
35 | Cc1nnc(Nc2cccc(C3CCN(Cc4ncc[nH]4)CC3)n2)s1 | 18.8%
36 | Cc1cc(C)nc(N2CCC(c3noc(C)n3)CC2)n1 | -7.52%
37 | CN(C)c1cccc(C2CCCN2S(=O)(=O)c2cn(C)cn2)n1 (configuration not stated) | -8.98%
38 | CC(=O)N1CCC[C@@H](NCc2ccc(F)cc2)[C@@H]1c1ccc(C)s1 | -8.87%
39 | CC(C)Nc1cccc(CC2CCN(S(C)(=O)=O)CC2)n1 | 19.5%
40 | Cc1nc(C2CN(Cc3scnc3C)CCO2)cc(N(C)C)n1 (configuration not stated) | 5.46%
41 | CCOC(=O)c1n[nH]cc1-c1cncn1CC(C)n1nc(C)cc1C (configuration not stated) | -8.74%
42 | Cc1c[nH]nc1C1CCN(C(=O)Cn2cccn2)C1 (configuration not stated) | -7.3%
43 | Nc1cc(N2CCOCC(Cc3ccc4[nH]ccc4c3)C2)ncn1 (configuration not stated) | -0.988%
44 | CC(=O)Nc1nc(C2CCCN(C(=O)CN(C)C)C2)cs1 (configuration not stated) | -9.21%
45 | Nc1nccc(C2CCCCN2Cc2cccc(F)c2)n1 (configuration not stated) | -2.1%
46 | CC(=O)N1CCN(CCCOc2ccccc2F)CC(C(N)=O)C1 (configuration not stated) | -13.8%
47 | CN(C)c1cncc(C2CCCN2S(=O)(=O)c2cn(C)cn2)n1 (configuration not stated) | 14.9%
48 | CC1(C2CCN(CC(N)=O)CC2)CN(Cc2ccccc2)C(=O)O1 (configuration not stated) | -5.3%

Row | SMILES | cytotoxicity at 70.5 h
49 | COc1cccc(CC(=O)NC(C)c2nc3cccnc3n2C(C)C)c1 (configuration not stated) | -2.69%
50 | Cc1cnc(-c2nc(NC3CC3)ncc2-c2cc(C)no2)cn1 | 12%
51 | CC(=O)N1CCn2c(nnc2C2CCCCN2C(C)=O)C1 (configuration not stated) | -4.85%
52 | O=C(c1cnccn1)N1CCCC(Cc2cncc3ccccc23)C1 (configuration not stated) | -6.77%
53 | Cc1csc(NC(=O)c2cnc(C3CCCN(C)C3)cn2)n1 (configuration not stated) | -8.15%
54 | Cc1ncccc1Oc1cncc(C2CCCN2Cc2cncn2C)n1 (configuration not stated) | -2.83%
55 | CCc1nccn1-c1cncc(C2CCN(C(=O)COC)CC2)n1 | -6.24%
56 | O=C(c1cccnc1)N1CCCC1c1cc[nH]n1 (configuration not stated) | 23.9%
57 | CNc1cccc(C2CCCN(Cc3ncc[nH]3)C2)n1 (configuration not stated) | -2.87%
58 | CCc1nccn1-c1nccnc1C1CCCN(C(=O)COC)C1 (configuration not stated) | -6.06%
59 | CCn1cc(CN2CCN(CC(O)c3cc(C)ccc3C)CC2)c(C)n1 (configuration not stated) | -1.03%
60 | CCCNC(=O)c1cc(C2CCCN(Cc3ccccn3)C2)no1 (configuration not stated) | 21.2%
61 | O=C(c1cc(C2CCCN(Cc3ccccn3)C2)no1)N1CCCC1 (configuration not stated) | -1.56%
62 | CCn1cc(CN2CCN(CC(O)c3ccc(C)cc3C)CC2)c(C)n1 (configuration not stated) | -6.8%
63 | Cc1cc(-c2cnc(C3CC3)nc2CN(C)C(=O)c2ccccn2)on1 | -2.22%
64 | O=C1NC[C@]2(CC[C@@H](C(=O)N3CCC(O)CC3)CC2)Oc2ccccc21 | -4.51%
65 | O=C1CN(C(=O)[C@H]2CC[C@]3(CC2)CNC(=O)c2ccccc2O3)CCN1 | -8.28%
66 | Cn1ncc(Cl)c1C(=O)N1CCc2nc3sccc3c(=O)n2CC1 | 33.8%
67 | O=C(Cn1c(C(F)F)cc2cccnc21)NC1CCCC1 | -2.74%
68 | CCN1CCCC(NC(=O)CCn2c(C(F)F)cc3cccnc32)C1 (configuration not stated) | -4.62%
69 | CCn1ncc(S(=O)(=O)NC2(CN3CCOCC3)CCCCC2)c1C | -4.76%
70 | O=C(CCn1c(C(F)F)cc2cccnc21)NC1CCCC1 | -6.41%
71 | Cc1cc(-c2cnc(C)nc2CN(C)C(=O)c2ccccn2)on1 | -3.87%
72 | CC(C)(C)NC(=O)C1(Cc2ccccc2-c2ccncc2)CCOCC1 | 27.7%

Row | SMILES | cytotoxicity at 70.5 h
73 | CC1CCc2n[nH]c(C(=O)NCCCc3ccco3)c2C1 (configuration not stated) | -2.37%
74 | CC1CCc2n[nH]c(C(=O)NCCCc3ccccn3)c2C1 (configuration not stated) | -7.91%
75 | Cc1cc(C)n(CC(C)NC(=O)C2(c3ccc(F)cc3)CC2)n1 (configuration not stated) | -10.8%
76 | CC1(C)COCCN1C(=O)CCc1nc(-c2ccncc2)no1 | 4.51%
77 | OC1CCN(c2nc(-c3ccccc3)no2)CC1 | -11.6%
78 | Cc1cc(C)n(CC(C)NC(=O)C(C)(C)c2ccccc2F)n1 (configuration not stated) | 6.99%
79 | Cc1nc2cc(F)ccc2cc1C(=O)N1CCN(CC(C)O)CC1 (configuration not stated) | -9.69%
80 | Cc1nc2cc(F)cc(C(=O)N3CCN(CC(C)O)CC3)c2nc1C (configuration not stated) | -9.3%
81 | O=C(c1ccccn1)N1CCN(C(c2ccccc2)C(F)(F)F)CC1 (configuration not stated) | 11.9%
82 | O=C(c1cc[nH]n1)N1CCN(C(c2ccccc2)C(F)(F)F)CC1 (configuration not stated) | -8.27%
83 | CCc1ccc(C(NC(=O)CCS(C)(=O)=O)C(C)(C)C)o1 (configuration not stated) | -8.82%
84 | O=C(NC1CCc2nccn2C1)c1ccc(OCC2CC2)nc1 (configuration not stated) | -7.7%
85 | CCSCCC(C)NC(=O)Nc1cccn(C)c1=O (configuration not stated) | -10%
86 | Cc1nc2cc(F)cc(C(=O)N3CCN(CCO)CC3)c2nc1C | -5.18%
87 | Cc1ccc(S(=O)(=O)N(C)Cc2nccs2)cc1N(C)C | 6.76%
88 | c1ccc(-c2nnc3n2CCN(c2nc(C4CC4)ns2)C3)cc1 | -8%
89 | CCc1nsc(N2CCn3c(nnc3-c3ccccc3)C2)n1 | -4.9%
90 | N#Cc1cc(F)ccc1NCc1ccc(Cn2cncn2)cc1 | -3.41%
91 | COc1ccc(-c2noc(CCC(=O)N3CCOCC3(C)C)n2)cc1 | -3.78%
92 | CCC(C)(C)NC(=O)c1scnc1Cl | 12.7%
93 | CCc1noc(C)c1C(=O)NCCCC(CC)(CC)C1OCCO1 | -5.2%
94 | CCc1ccc(C(NC(=O)CN(C)S(C)(=O)=O)C(C)(C)C)o1 (configuration not stated) | -7.8%
95 | FC(F)(F)CCN(Cc1ccon1)C1CCC1 | -7.34%
96 | COc1ccccc1CC(C)N(C)CCS(C)(=O)=O (configuration not stated) | -14.1%

Row | SMILES | cytotoxicity at 70.5 h
97 | CCCC(=O)N(C)Cc1cccc(OC(C)C)c1 | 9.69%
98 | CN(Cc1cccc(OC(F)(F)F)c1)C(=O)Cc1ccon1 | -13.6%
99 | CNS(=O)(=O)c1cccc(CNCc2ccsc2)c1 | -1.74%
100 | CCCc1c(C(=O)N2CCN(c3nccc(OC)n3)CC2)cnn1C | -5.72%
101 | COCC(C)N1CCN(CCc2ccc3c(c2)CCO3)CC1 (configuration not stated) | 21.8%
102 | O=C(NCC(F)(F)F)c1ccncc1 | 12.7%
103 | O=C(COCCOc1ccccc1)NC1CCN(c2ccccn2)CC1 | -12.1%
104 | CC(C)(C)C(=O)NCC(=O)Nc1cccnc1 | -6.42%
105 | Cn1nc(C(=O)NC2(c3ccc(Cl)cc3)CCCC2)ccc1=O | 24.7%
106 | CCc1nnc2n1CCN(C(C(=O)NC1CC1)c1ccc(F)cc1)C2 (configuration not stated) | -15.2%
107 | CCc1nnc2n1CCN(C(C(=O)N(CC)CC)c1ccccc1)C2 (configuration not stated) | -12.7%
108 | COc1ccc(CNC(=O)c2ccoc2CN2CCNC(=O)C2)cc1 | 22.4%
109 | CC1Oc2c(cccc2C(=O)N2CCN(CC(C)(C)O)CC2)NC1=O (configuration not stated) | -10.7%
110 | CNC(=O)c1cc(C2CCCN2)n[nH]1 (configuration not stated) | -3.32%
111 | CCc1ncc(CN[C@@H]2CCCN(C(C)=O)[C@H]2c2ccc(C)s2)cn1 | -6.59%
112 | Cc1csc(NC(=O)c2cnc(C3CCCN3)cn2)n1 (configuration not stated) | -13.1%
113 | Cc1csc(NC(=O)c2cnc(C3CCNCC3)cn2)n1 | -11.9%
114 | CN(C)c1ncc(C2Nc3cc(Cl)ccc3C3=NCCCN32)cn1 (configuration not stated) | -5.74%
115 | CC(C)Nc1nc(O)cc(C2CC(=O)N(Cc3ccccn3)C2)n1 (configuration not stated) | -5.33%
116 | CNc1cc(C2CCCN2C(=O)c2ccc(=O)[nH]n2)ccn1 (configuration not stated) | -2.78%
117 | CC(C)Nc1cccc(CC2CCN(C)C2)n1 (configuration not stated) | -5.89%
